Data set [1] can be described thus: Absorption maximum of the compound in MeOH. Type of data set: physicochemical.
A short description of data set [2]: Emission maximum of the compound in THF. Type of data set: physicochemical.
Data set [3] is described as follows: Fluorescence property of compound in MeOH assessed as quantum yield. Type of data set: physicochemical.
The nature of data set [4]: Induction of singlet oxygen generation in MeOH assessed as singlet oxygen quantum yield. Type of data set: functional.
Data set [5] is described as follows: Fluorescence property of compound in MeOH assessed as life time. Type of data set: physicochemical.

For the molecule `CC1(C)CCC(C)(C)c2cc3c(cc21)C1=Nc2c4cc5c(cc4c4n2[B-]2(Cl)n6c(c7cc8c(cc7c6=N4)C(C)(C)CCC8(C)C)=NC3=[N+]12)C(C)(C)CCC5(C)C` (stereo not given), the Activity in data set [1] is 575 nm; in data set [2] it was 587 nm; in data set [3], 0.18; in data set [4], 0.65; in data set [5] it was 2.04 nanoseconds.

(Values after ChEMBL document CHEMBL5053548, “Subphthalocyanines as Efficient Photosensitizers with Nanomolar Photodynamic Activity against Cancer Cells” (J Med Chem, 2021).)
